In US20120122924A1, “NAMPT INHIBITORS” (ABBOTT LABORATORIES, priority 2010, published 2012):

Target: recombinant, human, C-terminally-His tagged NAMPT (Homo sapiens, UniProt P43490)
Experiment: Time-Resolved Fluorescence Resonance Energy Transfer (TR-FRET) binding assay of NAMPT
Details: 6.8 nM NAMPT, 200 nM probe (Oregon Green 488-conjugated APO866), 1 nM Tb-anti-His antibody, 2-3 hours
Experimental: Determination of the utility of compounds having Formula (I) as binders to and inhibitors of NAMPT was performed using a Time-Resolved Fluorescence Resonance Energy Transfer (TR-FRET) binding assay.
Time-Resolved Fluorescence Resonance Energy Transfer (TR-FRET) Binding Assay of NAMPT
The assay was carried out in 18 uL low volume plates (Owens Corning) in reaction buffer (50 mM HEPES (NaOH), pH 7.5, 100 mM NaCl, 10 mM MgCl2, 1 mM DTT, 1% Glycerol) using 6.8 nM recombinant, human, C-terminally-His tagged NAMPT, 1 nM Tb-anti-His antibody (Invitrogen, Cat # PV5895), and 200 nM probe (Oregon Green 488-conjugated APO866; A-1251667.0). Plates were covered, and reactions were carried out for 2-3 hours. Plates were read with Envision (Laser Lantha low volume protocol) after 2 to 3 hours. Excitation was carried out at 337 nm, and the ratio of emission of Oregon Green (520 nm) to terbium (492 nm) was determined and used to calculate IC50 values of test compounds.

Sequence of recombinant, human, C-terminally-His tagged NAMPT (P43490 whole entry): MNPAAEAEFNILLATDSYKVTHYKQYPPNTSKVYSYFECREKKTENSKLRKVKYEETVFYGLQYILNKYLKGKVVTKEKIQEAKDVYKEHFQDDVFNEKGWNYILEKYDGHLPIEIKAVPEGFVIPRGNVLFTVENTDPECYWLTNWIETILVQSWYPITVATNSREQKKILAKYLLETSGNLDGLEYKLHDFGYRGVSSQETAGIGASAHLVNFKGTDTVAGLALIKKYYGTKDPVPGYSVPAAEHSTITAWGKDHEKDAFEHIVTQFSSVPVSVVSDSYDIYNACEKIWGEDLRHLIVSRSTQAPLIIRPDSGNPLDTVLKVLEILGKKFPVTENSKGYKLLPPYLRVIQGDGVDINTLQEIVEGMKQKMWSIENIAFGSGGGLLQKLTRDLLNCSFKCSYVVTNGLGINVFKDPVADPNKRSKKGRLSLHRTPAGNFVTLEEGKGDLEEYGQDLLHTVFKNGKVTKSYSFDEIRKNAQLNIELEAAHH

Row | Structure (SMILES) | IC50 [nM]
1 | O=C(Nc1ccc(NC(=O)N2CCc3ccccc3C2)cc1)C1Cc2ccccc2O1 (racemic) [Example 68, N-{4-[((2R)-2,3-dihydro-1-benzofuran-2-ylcarbonyl)amino]phenyl}-3,4-dihydroisoquinoline-2(1H)-carboxamide and N-{4-[((2S)-2,3-dihydro-1-benzofuran-2-ylcarbonyl)amino]phenyl}-3,4-dihydroisoquinoline-2(1H)-carboxamide] | 4.45
2 | CCC(C)CC(=O)Nc1ccc(NC(=O)N2CCc3ccccc3C2)cc1 (racemic) [Example 69, N-{4-[((3R)-3-methylpentanoyl)amino]phenyl}-3,4-dihydroisoquinoline-2(1H)-carboxamide and N-{4-[((3S)-3-methylpentanoyl)amino]phenyl}-3,4-dihydroisoquinoline-2(1H)-carboxamide] | 6.49
3 | O=C(Nc1ccc(NC(=O)N2CCc3ccccc3C2)cc1)C1CCOC1 (racemic) [Example 75, N-{4-[((3R)-tetrahydrofuran-3-ylcarbonyl)amino]phenyl}-3,4-dihydroisoquinoline-2(1H)-carboxamide and N-{4-[((3S)-tetrahydrofuran-3-ylcarbonyl)amino]phenyl}-3,4-dihydroisoquinoline-2(1H)-carboxamide] | 196
4 | O=C(Nc1ccc(C(=O)N2CCN(c3ccccn3)CC2)cc1)N1CCc2ccccc2C1 [Example 2, N-(4-{[4-(pyridin-2-yl)piperazin-1-yl]carbonyl}phenyl)-3,4-dihydroisoquinoline-2(1H)-carboxamide] | 13.2
5 | O=C(NCCCc1ccccc1)c1ccc(NC(=O)N2CCc3cc(F)ccc3C2)cc1 [Example 3, 6-fluoro-N-{4-[(3-phenylpropyl)carbamoyl]phenyl}-3,4-dihydroisoquinoline-2(1H)-carboxamide] | 13.8
6 | CC(C)CCNC(=O)c1ccc(NC(=O)N2CCc3cnccc3C2)cc1 [Example 5, N-{4-[(3-methylbutyl)carbamoyl]phenyl}-3,4-dihydro-2,6-naphthyridine-2(1H)-carboxamide] | 15.7
7 | CC(C)CCNC(=O)c1ccc(NC(=O)N2CCc3cc(F)ccc3C2)cc1 [Example 6, 6-fluoro-N-{4-[(3-methylbutyl)carbamoyl]phenyl}-3,4-dihydroisoquinoline-2(1H)-carboxamide] | 10.3
8 | CC(C)CCNC(=O)c1ccc(NC(=O)N2CCc3ccccc3C2)nc1 [Example 10, N-{5-[(3-methylbutyl)carbamoyl]pyridin-2-yl}-3,4-dihydroisoquinoline-2(1H)-carboxamide] | 29.4
9 | CC(C)CCn1cc(NC(=O)c2ccc(NC(=O)N3CCc4ccccc4C3)cc2)cn1 [Example 11, N-(4-{[1-(3-methylbutyl)-1H-pyrazol-4-yl]carbamoyl}phenyl)-3,4-dihydroisoquinoline-2(1H)-carboxamide] | 43.3
10 | O=C(Nc1cnn(Cc2ccccc2)c1)c1ccc(NC(=O)N2CCc3ccccc3C2)cc1 [Example 14, N-{4-[(1-benzyl-1H-pyrazol-4-yl)carbamoyl]phenyl}-3,4-dihydroisoquinoline-2(1H)-carboxamide] | 47.1
11 | CC(C)CCNC(=O)c1ccc(NC(=O)N2CCc3ccc(F)cc3C2)cc1 [Example 16, 7-fluoro-N-{4-[(3-methylbutyl)carbamoyl]phenyl}-3,4-dihydroisoquinoline-2(1H)-carboxamide] | 171
12 | O=C(NCCCc1ccccc1)c1ccc(NC(=O)N2CCc3ccc(F)cc3C2)cc1 [Example 20, 7-fluoro-N-{4-[(3-phenylpropyl)carbamoyl]phenyl}-3,4-dihydroisoquinoline-2(1H)-carboxamide] | 248
13 | O=C(Cc1ccc(NC(=O)N2CCc3ccccc3C2)cc1)NCCCc1ccccc1 [Example 27, N-(4-{2-oxo-2-[(3-phenylpropyl)amino]ethyl}phenyl)-3,4-dihydroisoquinoline-2(1H)-carboxamide] | 1030
14 | CC(C)CCNC(=O)c1ccc(NC(=O)N2CCc3ccncc3C2)cc1 [Example 28, N-{4-[(3-methylbutyl)carbamoyl]phenyl}-3,4-dihydro-2,7-naphthyridine-2(1H)-carboxamide] | 1250
15 | CC(C)CCNC(=O)Cc1ccc(NC(=O)N2CCc3ccccc3C2)cc1 [Example 29, N-(4-{2-[(3-methylbutyl)amino]-2-oxoethyl}phenyl)-3,4-dihydroisoquinoline-2(1H)-carboxamide] | 1500
16 | CC(C)CCC(=O)Nc1ccc(NC(=O)N2CCc3ccccc3C2)cc1 [Example 31, N-{4-[(4-methylpentanoyl)amino]phenyl}-3,4-dihydroisoquinoline-2(1H)-carboxamide] | 6.16
17 | O=C(CCCc1ccccc1)Nc1ccc(NC(=O)N2CCc3ccccc3C2)cc1 [Example 32, N-{4-[(4-phenylbutanoyl)amino]phenyl}-3,4-dihydroisoquinoline-2(1H)-carboxamide] | 12

Other lines, results leading:

Row | IC50 [nM] | Structure (SMILES)
18 | 16.7 | CC(C)CCNC(=O)c1ccc(NC(=O)N2CCc3ccccc3C2)cc1 [Example 1, N-{4-[(3-methylbutyl)carbamoyl]phenyl}-3,4-dihydroisoquinoline-2(1H)-carboxamide]
19 | 15 | O=C(NCCCc1ccccc1)c1ccc(NC(=O)N2CCc3cnccc3C2)cc1 [Example 4, N-{4-[(3-phenylpropyl)carbamoyl]phenyl}-3,4-dihydro-2,6-naphthyridine-2(1H)-carboxamide]
20 | 20.7 | O=C(NCCCc1ccccc1)c1ccc(NC(=O)N2CCc3ccccc3C2)cc1 [Example 7, N-{4-[(3-phenylpropyl)carbamoyl]phenyl}-3,4-dihydroisoquinoline-2(1H)-carboxamide]
21 | 23.7 | O=C(NCc1ccccc1)c1ccc(NC(=O)N2CCc3ccccc3C2)cc1 [Example 8, N-[4-(benzylcarbamoyl)phenyl]-3,4-dihydroisoquinoline-2(1H)-carboxamide]
22 | 29.1 | O=C(NCCCc1ccccc1)c1ccc(NC(=O)N2CCc3ccccc3C2)nc1 [Example 9, N-{5-[(3-phenylpropyl)carbamoyl]pyridin-2-yl}-3,4-dihydroisoquinoline-2(1H)-carboxamide]
23 | 45.2 | O=C(NCCc1cccs1)c1ccc(NC(=O)N2CCc3cnccc3C2)cc1 [Example 12, N-(4-{[2-(2-thienyl)ethyl]carbamoyl}phenyl)-3,4-dihydro-2,6-naphthyridine-2(1H)-carboxamide]
24 | 45.8 | O=C(NCCc1cccs1)c1ccc(NC(=O)N2CCc3cc(F)ccc3C2)cc1 [Example 13, 6-fluoro-N-(4-{[2-(2-thienyl)ethyl]carbamoyl}phenyl)-3,4-dihydroisoquinoline-2(1H)-carboxamide]
25 | 97.6 | O=C(NCCc1ccccc1)c1ccc(NC(=O)N2CCc3ccccc3C2)cc1 [Example 15, N-{4-[(2-phenylethyl)carbamoyl]phenyl}-3,4-dihydroisoquinoline-2(1H)-carboxamide]
26 | 178 | O=C(NCCc1cccs1)c1ccc(NC(=O)N2CCc3ccccc3C2)cc1 [Example 17, N-(4-{[2-(2-thienyl)ethyl]carbamoyl}phenyl)-3,4-dihydroisoquinoline-2(1H)-carboxamide]
27 | 178 | CC(C)CCNC(=O)c1ccc(NC(=O)N2CCc3ccccc3C2)cn1 [Example 18, N-{6-[(3-methylbutyl)carbamoyl]pyridin-3-yl}-3,4-dihydroisoquinoline-2(1H)-carboxamide]
28 | 195 | O=C(NCCc1cccs1)c1ccc(NC(=O)N2CCc3ccccc3C2)nc1 [Example 19, N-(5-{[2-(2-thienyl)ethyl]carbamoyl}pyridin-2-yl)-3,4-dihydroisoquinoline-2(1H)-carboxamide]
29 | 286 | O=C(NCCCc1ccccc1)c1ccc(NC(=O)N2CCc3ccccc3C2)cn1 [Example 21, N-{6-[(3-phenylpropyl)carbamoyl]pyridin-3-yl}-3,4-dihydroisoquinoline-2(1H)-carboxamide]
30 | 309 | O=C(NCCc1cccs1)c1ccc(NC(=O)N2CCc3ccccc3C2)cn1 [Example 22, N-(6-{[2-(2-thienyl)ethyl]carbamoyl}pyridin-3-yl)-3,4-dihydroisoquinoline-2(1H)-carboxamide]
31 | 366 | O=C(NCCc1cccs1)c1ccc(NC(=O)N2CCc3ccc(F)cc3C2)cc1 [Example 23, 7-fluoro-N-(4-{[2-(2-thienyl)ethyl]carbamoyl}phenyl)-3,4-dihydroisoquinoline-2(1H)-carboxamide]
32 | 597 | O=C(NCCCc1ccccc1)c1ccc(NC(=O)N2CCc3ccncc3C2)cc1 [Example 25, N-{4-[(3-phenylpropyl)carbamoyl]phenyl}-3,4-dihydro-2,7-naphthyridine-2(1H)-carboxamide]
33 | 800 | O=C(Cc1ccc(NC(=O)N2CCc3ccccc3C2)cc1)NCCc1cccs1 [Example 26, N-[4-(2-oxo-2-{[2-(2-thienyl)ethyl]amino}ethyl)phenyl]-3,4-dihydroisoquinoline-2(1H)-carboxamide]
34 | 2110 | O=C(NCCc1cccs1)c1ccc(NC(=O)N2CCc3ccncc3C2)cc1 [Example 30, N-(4-{[2-(2-thienyl)ethyl]carbamoyl}phenyl)-3,4-dihydro-2,7-naphthyridine-2(1H)-carboxamide]
35 | 40.4 | O=C(CCc1cccs1)Nc1ccc(NC(=O)N2CCc3ccccc3C2)cc1 [Example 33, N-(4-{[3-(2-thienyl)propanoyl]amino}phenyl)-3,4-dihydroisoquinoline-2(1H)-carboxamide]
